Experimental findings from patent US8440794B2, “Peptide sequences, their branched form and use thereof for antimicrobial applications” (Universita' Degli Studi di Siena, priority 2008, dated 2013) are described below.

Where no end group is shown, it is not given here.

One may read the MIC as the least concentration at which growth counts as inhibited.

One assay concerns K pneumoniae C8-27. Format: cell-based, Klebsiella pneumoniae. The note with it: K pneumoniae C8-27; FQr AGr ESCr ETPr (ESBL/CTX-M-15). On the procedure: (§1) M33, […], M35 and M36 MICs were determined against strains of several bacterial species, including Gram-negative pathogens and also Staphylococcus aureus (Table 1). MICs in the micromolar range were observed against several Gram-negatives including Pseudomonas aeruginosa, Acinetobacter baumannii and most Enterobacteriaceae, with the exception of Proteus mirabilis, Serratia marcescens and Burkholderia cepacia. Activity of peptides was retained against MDR strains with various resistance mechanisms (such as extended-spectrum beta-lactamases and carbapenemases), including MDR P. aeruginosa strains from CF patients. Antimicrobial profile of M33, […] and potency were overall similar to those of polymyxin B, although M33, M34, M35 and M36 also appeared to have some activity against S. aureus (Table 1).

In another assay the test system is K pneumoniae FIPP-1. Format: cell-based, Klebsiella pneumoniae. The note with it: K pneumoniae FIPP-1; FQr AGr ESCr NEMr (MBL/KPC-3). The protocol:
as §1

In another assay the test system is K pneumoniae 7086042. It is filed as cell-based, Klebsiella pneumoniae. The following applies: K pneumoniae 7086042; FQr AGr ESCr NEMr (MBL/VIM-1). On the procedure:
as §1

The test system of another assay is P. aeruginosa PAO-1. Format: cell-based, Pseudomonas aeruginosa. The note with it: P. aeruginosa PAO-1; reference strain, wild type. On the procedure: as §1
Assay [1] deals with P. aeruginosa SC-MDr03-06. Format: cell-based, Pseudomonas aeruginosa. The note with it: P. aeruginosa SC-MDr03-06; CF clinical isolate, FQr AGr ESCr NEMr. On the procedure: as §1
For assay [2], the system named is P. aeruginosa SC-DMr05-04. Format: cell-based, Pseudomonas aeruginosa. The following applies: P. aeruginosa SC-DMr05-04; CF clinical isolate, FQr AGr ESCr NEMr. On the procedure:
as §1

The test system of the next assay is P. aeruginosa AV65. It is filed as cell-based, Pseudomonas aeruginosa. The note with it: P. aeruginosa AV65; FQr AGr ESCr NEMr (MBL/IMP-13). On the procedure: as §1
The subject of assay [3] is P. aeruginosa SC-MDm03-02. Format: cell-based, Pseudomonas aeruginosa. The following applies: P. aeruginosa SC-MDm03-02; CF clinical isolate, mucoid, FQr AGr ESCr NEMr. On the procedure: as §1
Assay [4] deals with P. aeruginosa SC-GMm03-05. Format: cell-based, Pseudomonas aeruginosa. The following applies: P. aeruginosa SC-GMm03-05; CF clinical isolate, mucoid, FQr AGr ESCr NEMr. The protocol: as §1
The subject of the next assay is P. aeruginosa VR-143/97. Format: cell-based, Pseudomonas aeruginosa. The following applies: P. aeruginosa VR-143/97; FQr AGr ESCr NEMr (MBL/VIM-1). The protocol:
as §1

In assay [5] the test system is P. aeruginosa SC-CNm03-07. Format: cell-based, Pseudomonas aeruginosa. The following applies: P. aeruginosa SC-CNm03-07; CF clinical isolate, mucoid, FQr AGr ESCr NEMr. The protocol:
as §1

In another assay the test system is P. aeruginosa EF-OBG6-1. Format: cell-based, Pseudomonas aeruginosa. The following applies: P. aeruginosa EF-OBG6-1; CF clinical isolate, FQr AGr ESCr NEMr (MBL/IMP-13). On the procedure:
as §1

The test system of assay [6] is P. aeruginosa SC-BGr12-02. Format: cell-based, Pseudomonas aeruginosa. The following applies: P. aeruginosa SC-BGr12-02; CF clinical isolate, FQr AGr ESCr NEMr. On the procedure:
as §1

In assay [7] the test system is P. aeruginosa SC-VMr04-05. It is filed as cell-based, Pseudomonas aeruginosa. The following applies: P. aeruginosa SC-VMr04-05; CF clinical isolate, FQr AGr ESCr NEMr. The protocol:
as §1

A further assay concerns E. coli W03BG0025. It is filed as cell-based, Escherichia coli. The following applies: E. coli W03BG0025; FQr AGr ESCr (ESBL/CTX-M-15). On the procedure:
as §1

Assay [8] deals with Enterobacer aerogenes W03BG0067. Format: cell-based. The following applies: Enterobacer aerogenes W03BG0067; AGr ESCr (ESBL/SHV-5). On the procedure: as §1
The test system of assay [9] is Acinetobacter baumannii RUH 134. Format: cell-based. The following applies: Acinetobacter baumannii RUH 134; reference strain, European clone II. The protocol: as §1
In assay [10] the test system is Serratia marcescens W03BG0003. It is filed as cell-based. The note with it: Serratia marcescens W03BG0003; FQr AGr ESCr (ESBL/SHV-12). On the procedure: as §1
The subject of assay [11] is Staphylococcus aureus ATCC 29213. It is filed as cell-based. The following applies: Staphylococcus aureus ATCC 29213; reference strain, PENr. On the procedure: as §1
Assay [12] concerns Proteus mirabilis W03VA1017. It is filed as cell-based. The note with it: Proteus mirabilis W03VA1017; FQr ESCr (AmpC/CMY-16). The protocol: as §1
The test system of assay [13] is Escherichia coli ATCC 25922. It is filed as cell-based. The following applies: Escherichia coli ATCC 25922; reference strain, wild type. On the procedure: as §1
Assay [14] relates to Pseudomonas aeruginosa ATCC 27853. It is filed as cell-based. The note with it: Pseudomonas aeruginosa ATCC 27853; reference strain, wild type. The protocol:
as §1

Assay [15] relates to Enterobacter cloacae W03AN0041. Format: cell-based. The following applies: Enterobacter cloacae W03AN0041; ESCr (ESBL/SHV-12). On the procedure:
as §1

Assay [16] has as its system Klebsiella pneumoniae ATCC 13833. Format: cell-based. The note with it: Klebsiella pneumoniae ATCC 13833; reference strain, wild type. The protocol:
as §1

Assay [17] has as its system Burkholderia cepacia ORB-99. Format: cell-based. The following applies: Burkholderia cepacia ORB-99; CF clinical isolate, wild type. On the procedure: as §1
A further assay concerns A. baumannii MR157. It is filed as cell-based, Acinetobacter baumannii. The following applies: A. baumannii MR157; FQr AGr ESCr NEMr (OXA/OXA-58). The protocol:
as §1

The test system of the next assay is A. baumannii RUH 875. Format: cell-based, Acinetobacter baumannii. The note with it: A. baumannii RUH 875; reference strain, European clone I. The protocol: as §1
For another assay, the system named is S. aureus 3851. Format: cell-based, Staphylococcus aureus. The following applies: S. aureus 3851; MR VANi. The protocol: as §1
The subject of a further assay is E. coli TG1. As to the kind of experiment: Antibacterial activity against E. coli TG1 cells (CFU count after 75 min incubation, FIG. 1A). Format: cell-based. The note with it: 75 minutes at 37° C., CFU counted. From the text:
FIG. 1. A, Antibacterial activity against E. coli TG1 cells. Comparison of the following tetra-branched peptides: M6 batch 1 synthesis (triangles), M6 batch 2 synthesis (squares), M6 batch 3 synthesis (white circles), which contain a mixture of Gln and pyroGlu (in unknown percentages) as first amino-acid, […] (asterisks), where the first amino-acid is 100% pyroGlu, and M33 (black circles), in which the first Gln was deleted. […] SD derived by means of three different experiments. Many different syntheses of M33 (and also of M34, M35 and M36, here not shown) gave perfectly overlapping results without any wavering outcome. B, Mass spectrometry analysis of tetra-branched peptide M6 crude mixture. Calculated molecular mass of M6 was 5195 Da. Two main peaks are present, one at 5197 Da corresponding to unmodified M6 and one at 5179 Da that corresponds to the secondary product with one pyroGlu in first position in the place of one of the four Gln. C, Mass spectrometry analysis of tetrabranched peptide M33 after 24 hours of incubation in serum. The peptide appears as a single peak at the expected molecular mass (4683 Da).
A single colony of E. coli TG1 strain was cultured in 2×TY medium to 0.2 OD^600. […] The following day colonies (CFU/ml) grown on plates were counted.

Regarding Polymyxin B [reference compound], the MIC with K pneumoniae C8-27 stood at 0.7 µM; with K pneumoniae FIPP-1, 1.5 µM; in the assay with K pneumoniae 7086042 it was 1.5 µM; against P. aeruginosa PAO-1, 1.5 µM; in [1], 1.5 µM; in [2], 1.5 µM. Moreover, the MIC with P. aeruginosa AV65 worked out at 1.5 µM; in assay [3], 1.5 µM; in assay [4], 1.5 µM; with P. aeruginosa VR-143/97, 1.5 µM; in [5] it was 0.7 µM; in the assay with P. aeruginosa EF-OBG6-1 it was 0.7 µM. Moreover, the MIC is 1.5 µM in assay [6]; 1.5 µM in assay [7]; 0.7 µM with E. coli W03BG0025; 0.7 µM in assay [8]; 1.5 µM in assay [9]; over 96 µM in [10]. In addition, the MIC in [11] was 96 µM; in assay [12], over 96 µM; in assay [13] it was 0.7 µM; in assay [14], 1.5 µM; in [15], 0.7 µM; in assay [16] it was 0.7 µM. The MIC is over 96 µM in assay [17], 1.5 µM against A. baumannii MR157, 1.5 µM in the assay with A. baumannii RUH 875 and 96 µM with S. aureus 3851.
With “QKKIRVRLSA (also: tetra-branched MAP) [M6, previously reported tetra-branched MAP peptide with Gln as first amino-terminal residue, reference compound]”, the “Antibacterial activity against E. coli TG1 cells (comparison of tetra-branched peptides, FIG. 1A)” value in the assay with E. coli TG1 is given as “intermediate antimicrobial activities”.
